# Results taken from ChEMBL document CHEMBL3044597, “Docking-based 3D-QSAR modeling of the inhibitors of IMP metallo--lactamase” (Med Chem Res, 2013).
# pIC50: −log10 of the molar value.
# Molecular target: Beta-lactamase (Pseudomonas aeruginosa, UniProt Q79MP6)
# Test: Inhibition of Pseudomonas aeruginosa IMP1 metallo-beta-lactamase
# Beta-lactamase, sequence (Q79MP6 whole entry): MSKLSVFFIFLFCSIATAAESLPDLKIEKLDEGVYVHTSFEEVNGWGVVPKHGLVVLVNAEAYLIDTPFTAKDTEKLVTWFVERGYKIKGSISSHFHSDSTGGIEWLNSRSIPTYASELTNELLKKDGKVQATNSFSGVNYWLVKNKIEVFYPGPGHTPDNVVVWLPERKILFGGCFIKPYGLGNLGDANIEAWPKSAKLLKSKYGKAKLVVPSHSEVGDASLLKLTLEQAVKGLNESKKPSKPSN
row,Compound,pIC50
1,COc1cccc(C(=O)N[C@H](C)C(=O)S[C@@H](C)Cc2ccc(-c3ccccc3)cc2)c1,4.42
2,C[C@@H](Cc1ccc(-c2ccccc2)cc1)SC(=O)[C@@H](C)NC(=O)c1cccc(N(C)C)c1,4.82
3,C=CCOC(=O)N[C@H](C)C(=O)S[C@@H](C)Cc1ccc2oc3ccccc3c2c1,5.54
4,CCCC(=O)N[C@H](C)C(=O)S[C@@H](C)Cc1ccc(-c2ccccc2)cc1,5.03
5,CCC(=O)N[C@H](C)C(=O)S[C@@H](C)Cc1ccc(-c2ccccc2)cc1,5.02
6,C[C@@H](Cc1ccc2oc3ccccc3c2c1)SC(=O)[C@@H](C)NC(=O)c1ccccc1,5.82
7,C[C@@H](Cc1ccc(-c2ccccc2)cc1)SC(=O)[C@@H](C)NC(=O)CCCC(=O)O,4.04
8,C[C@@H](Cc1ccccc1)SC(=O)[C@@H](C)NC(=O)c1ccccc1,4.70
9,C[C@@H](Cc1ccc(-c2ccccc2)cc1)SC(=O)[C@@H](C)NC(=O)c1ccccc1,5.44
10,CC(C)C(=O)N[C@H](C)C(=O)S[C@@H](C)Cc1ccc(-c2ccccc2)cc1,5.01
11,C/C=C/C(=O)N[C@H](C)C(=O)S[C@@H](C)Cc1ccc(-c2ccccc2)cc1,4.48
12,C[C@@H](Cc1ccc(-c2ccccc2)cc1)SC(=O)[C@@H](C)NC(=O)CSCC(=O)O,4.89
13,C[C@@H](Cc1ccc(-c2ccccc2)cc1)SC(=O)[C@@H](C)NC(=O)Cc1ccccc1,5.24
14,C[C@@H](Cc1ccc(-c2ccccc2)cc1)SC(=O)[C@@H](C)NC(=O)/C=C/c1ccccc1,4.96
15,C[C@@H](Cc1ccc(-c2ccccc2)cc1)SC(=O)[C@@H](C)NC(=O)Cc1ccc(O)cc1,5.51
16,COc1ccc(CC(=O)N[C@H](C)C(=O)S[C@@H](C)Cc2ccc(-c3ccccc3)cc2)cc1,4.92
17,C[C@@H](Cc1ccc(-c2ccccc2)cc1)SC(=O)[C@@H](C)NC(=O)Cc1ccc(N(C)C)cc1,4.26
18,C[C@@H](Cc1ccc(-c2ccccc2)cc1)SC(=O)[C@@H](C)NC(=O)Cc1cccc2ccccc12,4.92
19,COc1ccc(C(=O)N[C@H](C)C(=O)S[C@@H](C)Cc2ccc(-c3ccccc3)cc2)cc1,4.54
20,CC(=O)N[C@H](C)C(=O)S[C@@H](C)Cc1ccc2oc3ccccc3c2c1,5.70
21,O=C(S[C@H](Cc1ccccc1)C(=O)O)c1ccccc1,7.19
22,CC(=O)S[C@H](Cc1ccccc1)C(=O)O,4.92
23,O=C(O)[C@H](S)Cc1ccccc1,7.07
24,O=C(O)[C@H](S)Cc1ccc2oc3ccccc3c2c1,7.64
25,O=C(O)[C@@H](S)Cc1ccc(-c2ccccc2)cc1,5.92
26,"O=C(O)[C@H](Cc1ccccc1)[C@@H](Cc1ccccc1)C(=O)O [(2R,3R)-2,3-DIBENZYLSUCCINIC ACID]",6.68

# The remaining lines, values ahead:
row,pIC50,Compound
1,8.05,O=C(O)[C@@H](Cc1ccc2c(c1)OCO2)[C@H](Cc1ccc2c(c1)OCO2)C(=O)O
2,8.43,O=C(O)[C@@H](Cc1ccccc1)[C@H](Cc1ccc2c(c1)OCO2)C(=O)O
3,4.34,COc1cc(OC)c(C(=O)N[C@H](C)C(=O)S[C@@H](C)Cc2ccc(-c3ccccc3)cc2)c(OC)c1
4,4.75,C[C@@H](Cc1ccc(-c2ccccc2)cc1)SC(=O)[C@@H](C)NC(=O)c1ccc2ccccc2c1
5,4.75,CC(=O)N[C@H](C)C(=O)S[C@@H](C)Cc1ccc(-c2ccccc2)cc1
6,5.36,C=CCOC(=O)N[C@H](C)C(=O)S[C@@H](C)Cc1ccc(-c2ccccc2)cc1
7,5.32,CCCCC(=O)N[C@H](C)C(=O)S[C@@H](C)Cc1ccc(-c2ccccc2)cc1
8,4.89,CCCCCC(=O)N[C@H](C)C(=O)S[C@@H](C)Cc1ccc(-c2ccccc2)cc1
9,5.28,CC(C)CC(=O)N[C@H](C)C(=O)S[C@@H](C)Cc1ccc(-c2ccccc2)cc1
10,6.00,C[C@@H](Cc1ccc(-c2ccccc2)cc1)SC(=O)[C@@H](C)NC(=O)COc1ccccc1
11,4.82,C[C@@H](Cc1ccc(-c2ccccc2)cc1)SC(=O)[C@@H](C)NC(=O)CCc1ccccc1
12,6.60,C[C@@H](Cc1ccc(-c2ccccc2)cc1)SC(=O)[C@@H](C)NC(=O)CCC(=O)c1ccccc1
13,4.30,C[C@@H](Cc1ccc(-c2ccccc2)cc1)SC(=O)[C@@H](C)NC(=O)CNC(=O)c1ccccc1
14,4.62,C[C@@H](Cc1ccc(-c2ccccc2)cc1)SC(=O)[C@@H](C)NC(=O)Cc1ccccc1Cc1ccccc1
15,4.50,C[C@@H](Cc1ccc(-c2ccccc2)cc1)SC(=O)[C@@H](C)NC(=O)Cc1cccnc1
16,8.57,O=C(O)[C@@H](Cc1ccccc1)[C@H](Cc1ccccc1)C(=O)O
17,7.89,C[C@@H](c1ccccc1)[C@H](C(=O)O)[C@H](Cc1ccccc1)C(=O)O
18,7.24,O=C(O)[C@H](S)Cc1ccc(-c2ccccc2)cc1
19,7.08,CC(=O)S[C@H](Cc1ccc(-c2ccccc2)cc1)C(=O)O
20,8.89,O=C(S[C@H](Cc1ccc2oc3ccccc3c2c1)C(=O)O)c1ccccc1
21,6.60,O=C(O)[C@@H](S)Cc1ccc2oc3ccccc3c2c1
22,5.60,O=C(S[C@@H](Cc1ccccc1)C(=O)O)c1ccccc1
